In patent US20240182945A1, “PRODUCTS FOR REGULATION OF EUKARYOTIC AND MICROBIAL CELLS GROWTH” (priority 2021, published 2024):
Starred links: 1 amine or outer side, 2 acyl side, 3 side chain; linkers in the order of their positions; H or OH if unused. Positions of bridges follow the written chain, without caps; N, C: chain ends. Non-standard residues stand in square brackets, D forms with d. Residues, ends and D or L forms follow the SMILES beside them. *: point of attachment. hTyr(3S-OH,4S-OH,3'-OSO3H) = N[C@H](C(=O)O)[C@H](O)[C@@H](O)c1ccc(O)c(OS(=O)(=O)O)c1; pTerphenylCO(4''-OnC5H11) = CCCCCOc1ccc(-c2ccc(-c3ccc(C(=O)*)cc3)cc2)cc1; Orn(4R-OH,5R-OH) = O=C([C@H](C[C@@H](O)[C@@H](O)N[*:3])N[*:1])[*:2]; hTyr(3S-OH,4S-OH) = N[C@H](C(=O)O)[C@H](O)[C@@H](O)c1ccc(O)cc1; Pro(3S-OH,4S-Me) = C[C@H]1CN[C@H](C(=O)O)[C@H]1O; X1 = CCCCCOc1ccc(-c2cc(-c3ccc(C(=O)*)cc3)no2)cc1; Gln(3R-OH) = NC(=O)C[C@@H](O)[C@H](N)C(=O)O; Hyp = O=C(O)[C@@H]1C[C@@H](O)CN1

Tested on: C. albicans, non-albicans Candida spp. Aspergillus spp. in oral swabs from patients with oral candidiasis
Experiment: Signs of fungal growth on 12 well plate test system supplemented with antifungal antibiotics
Type: cell-based
Conditions: naked eye examination, samples resistant to the antibiotic
Procedure: Oral swabs (n=6) from patients with confirmed oral candidiasis caused by C. albicans, non-albicans Candida spp. Aspergillus spp., were dissolved with PBS and 0.1 uL were plated on 12 well plate test system filled with Mixed Medium 1 (see above), Mixed Medium 2 (Sabouraud agar+Potato Dextrose Agar+vitamins B12+B7) (MM2), Sabouraud agar (SA), Potato Dextrose Agar (PDA), Sabouraud's Heart Infusion (SABHI) agar. 11 wells were filled with media supplemented with antibiotics (taken at mean concentration of each antibiotic achieved in lungs at different timpoints post drug administration)—Nystatin, Amphotericin B, Clotrimazole, Fluconazole, Isavuconazole, Terbinafin, Posaconazole, Voriconazole, Anidulafungin, Caspofungin, Micafungin. One well was antibiotic free.
Plates was incubated at 30 C and the analysis of the presence/absence of microbial growth was monitored every 15 minutes from […] to 5 h, then hourly from 5 h to 8 h and then at 18 and 24 h post plating with a naked eye.
Three methods (algorithms) how to analyze fungal growth were used.
Method (Algorithm) #1. Lab technician, analyzed the appearance of fungal growth by comparing the signs of fungal growth in each well supplemented with antibiotic(s) at certain timepoint, with the signs of funal growth in the same well at previous time point(s).
Method (Algorithm)#2. Lab technician analyzed the appearance of fungal growth by comparing the signs of fungal growth in each well supplemented with antibiotic(s) with fungal growth in antibiotic-free control
Method (Algorithm) #3. Lab technician analyzed the absence of fungal growth in the wells in fixed time period of 3.5 h; 5 h and 24 h.

[1] = Method (Algorithm) #1, MM1 medium
[2] = Method (Algorithm) #1, MM2 medium
[3] = Method (Algorithm) #1, PDA medium
[4] = Method (Algorithm) #1, SA (Sabouraud agar)
[5] = Method (Algorithm) #1, SABHI medium
[6] = Method (Algorithm) #2, MM1 medium
[7] = Method (Algorithm) #2, MM2 medium
[8] = Method (Algorithm) #2, PDA medium
[9] = Method (Algorithm) #2, SA (Sabouraud agar)
[10] = Method (Algorithm) #2, SABHI medium

C[C@@H]1[C@H](O)[C@@H](C)/C=C/C=C/C=C/C=C/C=C/C=C/C=C/[C@H](O[C@@H]2O[C@H](C)[C@@H](O)[C@H](N)[C@@H]2O)C[C@@H]2O[C@](O)(C[C@@H](O)C[C@@H](O)[C@H](O)CC[C@@H](O)C[C@@H](O)CC(=O)O[C@H]1C)C[C@H](O)[C@H]2C(=O)O [Amphotericin B]
Mean hour at which fungal growth became visible on the wells supplemented with a certain antibiotic [1]: 3 h | Mean hour at which fungal growth became visible on the wells supplemented with a certain antibiotic [2]: 5 h | Mean hour at which fungal growth became visible on the wells supplemented with a certain antibiotic [3]: 4.5 h | Mean hour at which fungal growth became visible on the wells supplemented with a certain antibiotic [4]: 6.5 h | Mean hour at which fungal growth became visible on the wells supplemented with a certain antibiotic [5]: 6 h | Mean hour at which fungal growth became visible on the wells supplemented with a certain antibiotic [6]: 5 h | Mean hour at which fungal growth became visible on the wells supplemented with a certain antibiotic [7]: 5 h | Mean hour at which fungal growth became visible on the wells supplemented with a certain antibiotic [8]: 7.5 h | Mean hour at which fungal growth became visible on the wells supplemented with a certain antibiotic [9]: 7 h | Mean hour at which fungal growth became visible on the wells supplemented with a certain antibiotic [10]: 8 h

CCCCCOc1ccc(-c2ccc(-c3ccc(C(=O)N[C@H]4C[C@@H](O)[C@@H](O)NC(=O)[C@@H]5[C@@H](O)[C@@H](C)CN5C(=O)[C@H]([C@@H](C)O)NC(=O)[C@H]([C@H](O)[C@@H](O)c5ccc(O)cc5)NC(=O)[C@@H]5C[C@@H](O)CN5C(=O)[C@H]([C@@H](C)O)NC4=O)cc3)cc2)cc1 [Anidulafungin] ({pTerphenylCO(4''-OnC5H11)}-[Orn(4R-OH,5R-OH)]T[Hyp][hTyr(3S-OH,4S-OH)]T[Pro(3S-OH,4S-Me)]; lactam 1-C)
Mean hour at which fungal growth became visible on the wells supplemented with a certain antibiotic [1]: 4 h | Mean hour at which fungal growth became visible on the wells supplemented with a certain antibiotic [2]: 5 h | Mean hour at which fungal growth became visible on the wells supplemented with a certain antibiotic [3]: 6.5 h | Mean hour at which fungal growth became visible on the wells supplemented with a certain antibiotic [4]: 5.5 h | Mean hour at which fungal growth became visible on the wells supplemented with a certain antibiotic [5]: 6.5 h | Mean hour at which fungal growth became visible on the wells supplemented with a certain antibiotic [6]: 5.5 h | Mean hour at which fungal growth became visible on the wells supplemented with a certain antibiotic [7]: 4.5 h | Mean hour at which fungal growth became visible on the wells supplemented with a certain antibiotic [8]: 7.5 h | Mean hour at which fungal growth became visible on the wells supplemented with a certain antibiotic [9]: 6.5 h | Mean hour at which fungal growth became visible on the wells supplemented with a certain antibiotic [10]: 8.5 h

CC[C@H](C)C[C@H](C)CCCCCCCCC(=O)N[C@H]1C[C@@H](O)[C@@H](NCCN)NC(=O)[C@@H]2[C@@H](O)CCN2C(=O)[C@H]([C@H](O)CCN)NC(=O)[C@H]([C@H](O)[C@@H](O)c2ccc(O)cc2)NC(=O)[C@@H]2C[C@@H](O)CN2C(=O)[C@H]([C@@H](C)O)NC1=O [Caspofungin]
Mean hour at which fungal growth became visible on the wells supplemented with a certain antibiotic [1]: 3.5 h | Mean hour at which fungal growth became visible on the wells supplemented with a certain antibiotic [2]: 5 h | Mean hour at which fungal growth became visible on the wells supplemented with a certain antibiotic [3]: 6 h | Mean hour at which fungal growth became visible on the wells supplemented with a certain antibiotic [4]: 5.5 h | Mean hour at which fungal growth became visible on the wells supplemented with a certain antibiotic [5]: 7 h | Mean hour at which fungal growth became visible on the wells supplemented with a certain antibiotic [6]: 6 h | Mean hour at which fungal growth became visible on the wells supplemented with a certain antibiotic [7]: 5.5 h | Mean hour at which fungal growth became visible on the wells supplemented with a certain antibiotic [8]: 8 h | Mean hour at which fungal growth became visible on the wells supplemented with a certain antibiotic [9]: 7.5 h | Mean hour at which fungal growth became visible on the wells supplemented with a certain antibiotic [10]: 8.5 h

Clc1ccccc1C(c1ccccc1)(c1ccccc1)n1ccnc1 [Clotrimazole]
Mean hour at which fungal growth became visible on the wells supplemented with a certain antibiotic [1]: 3.5 h | Mean hour at which fungal growth became visible on the wells supplemented with a certain antibiotic [2]: 4.5 h | Mean hour at which fungal growth became visible on the wells supplemented with a certain antibiotic [3]: 7.5 h | Mean hour at which fungal growth became visible on the wells supplemented with a certain antibiotic [4]: 5 h | Mean hour at which fungal growth became visible on the wells supplemented with a certain antibiotic [5]: 6.5 h | Mean hour at which fungal growth became visible on the wells supplemented with a certain antibiotic [6]: 4.5 h | Mean hour at which fungal growth became visible on the wells supplemented with a certain antibiotic [7]: 6.5 h | Mean hour at which fungal growth became visible on the wells supplemented with a certain antibiotic [8]: 8.5 h | Mean hour at which fungal growth became visible on the wells supplemented with a certain antibiotic [9]: 7.5 h | Mean hour at which fungal growth became visible on the wells supplemented with a certain antibiotic [10]: 6.5 h

OC(Cn1cncn1)(Cn1cncn1)c1ccc(F)cc1F [Fluconazole]
Mean hour at which fungal growth became visible on the wells supplemented with a certain antibiotic [1]: 4 h | Mean hour at which fungal growth became visible on the wells supplemented with a certain antibiotic [2]: 4.5 h | Mean hour at which fungal growth became visible on the wells supplemented with a certain antibiotic [3]: 5 h | Mean hour at which fungal growth became visible on the wells supplemented with a certain antibiotic [4]: 6.5 h | Mean hour at which fungal growth became visible on the wells supplemented with a certain antibiotic [5]: 7.5 h | Mean hour at which fungal growth became visible on the wells supplemented with a certain antibiotic [6]: 5.5 h | Mean hour at which fungal growth became visible on the wells supplemented with a certain antibiotic [7]: 5.5 h | Mean hour at which fungal growth became visible on the wells supplemented with a certain antibiotic [8]: 6.5 h | Mean hour at which fungal growth became visible on the wells supplemented with a certain antibiotic [9]: 7 h | Mean hour at which fungal growth became visible on the wells supplemented with a certain antibiotic [10]: 8 h

C[C@@H](c1nc(-c2ccc(C#N)cc2)cs1)[C@](O)(Cn1cncn1)c1cc(F)ccc1F [Isavuconazole]
Mean hour at which fungal growth became visible on the wells supplemented with a certain antibiotic [1]: 5 h | Mean hour at which fungal growth became visible on the wells supplemented with a certain antibiotic [2]: 4.5 h | Mean hour at which fungal growth became visible on the wells supplemented with a certain antibiotic [3]: 6 h | Mean hour at which fungal growth became visible on the wells supplemented with a certain antibiotic [4]: 6.5 h | Mean hour at which fungal growth became visible on the wells supplemented with a certain antibiotic [5]: 7 h | Mean hour at which fungal growth became visible on the wells supplemented with a certain antibiotic [6]: 6 h | Mean hour at which fungal growth became visible on the wells supplemented with a certain antibiotic [7]: 5.5 h | Mean hour at which fungal growth became visible on the wells supplemented with a certain antibiotic [8]: 7.5 h | Mean hour at which fungal growth became visible on the wells supplemented with a certain antibiotic [9]: 7.5 h | Mean hour at which fungal growth became visible on the wells supplemented with a certain antibiotic [10]: 8.5 h

CCCCCOc1ccc(-c2cc(-c3ccc(C(=O)N[C@H]4C[C@@H](O)[C@@H](O)NC(=O)[C@@H]5[C@@H](O)[C@@H](C)CN5C(=O)[C@H]([C@H](O)CC(N)=O)NC(=O)[C@H]([C@H](O)[C@@H](O)c5ccc(O)c(OS(=O)(=O)O)c5)NC(=O)[C@@H]5C[C@@H](O)CN5C(=O)[C@H]([C@@H](C)O)NC4=O)cc3)no2)cc1 [Micafungin] (X1-[Orn(4R-OH,5R-OH)]T[Hyp][hTyr(3S-OH,4S-OH,3'-OSO3H)][Gln(3R-OH)][Pro(3S-OH,4S-Me)]; lactam 1-C)
Mean hour at which fungal growth became visible on the wells supplemented with a certain antibiotic [1]: 4.5 h | Mean hour at which fungal growth became visible on the wells supplemented with a certain antibiotic [2]: 5 h | Mean hour at which fungal growth became visible on the wells supplemented with a certain antibiotic [3]: 6 h | Mean hour at which fungal growth became visible on the wells supplemented with a certain antibiotic [4]: 6 h | Mean hour at which fungal growth became visible on the wells supplemented with a certain antibiotic [5]: 5 h | Mean hour at which fungal growth became visible on the wells supplemented with a certain antibiotic [6]: 4.5 h | Mean hour at which fungal growth became visible on the wells supplemented with a certain antibiotic [7]: 5.5 h | Mean hour at which fungal growth became visible on the wells supplemented with a certain antibiotic [8]: 7.5 h | Mean hour at which fungal growth became visible on the wells supplemented with a certain antibiotic [9]: 8 h | Mean hour at which fungal growth became visible on the wells supplemented with a certain antibiotic [10]: 6.5 h

C[C@@H]1[C@H](O)[C@@H](C)/C=C/C=C/CC/C=C/C=C/C=C/C=C/C(O[C@H]2O[C@H](C)[C@@H](O)[C@H](N)[C@@H]2O)CC2O[C@](O)(CC(O)C(O)CCC(O)CC(O)CC(O)CC(=O)O[C@H]1C)CC(O)C2C(=O)O (stereo partly drawn) [Nystatin]
Mean hour at which fungal growth became visible on the wells supplemented with a certain antibiotic [1]: 4 h | Mean hour at which fungal growth became visible on the wells supplemented with a certain antibiotic [2]: 4.5 h | Mean hour at which fungal growth became visible on the wells supplemented with a certain antibiotic [3]: 5 h | Mean hour at which fungal growth became visible on the wells supplemented with a certain antibiotic [4]: 6 h | Mean hour at which fungal growth became visible on the wells supplemented with a certain antibiotic [5]: 5.5 h | Mean hour at which fungal growth became visible on the wells supplemented with a certain antibiotic [6]: 4.5 h | Mean hour at which fungal growth became visible on the wells supplemented with a certain antibiotic [7]: 6 h | Mean hour at which fungal growth became visible on the wells supplemented with a certain antibiotic [8]: 6.5 h | Mean hour at which fungal growth became visible on the wells supplemented with a certain antibiotic [9]: 6 h | Mean hour at which fungal growth became visible on the wells supplemented with a certain antibiotic [10]: 7.5 h

CC[C@@H]([C@H](C)O)n1ncn(-c2ccc(N3CCN(c4ccc(OC[C@@H]5CO[C@@](Cn6cncn6)(c6ccc(F)cc6F)C5)cc4)CC3)cc2)c1=O [Posaconazole]
Mean hour at which fungal growth became visible on the wells supplemented with a certain antibiotic [1]: 3.5 h | Mean hour at which fungal growth became visible on the wells supplemented with a certain antibiotic [2]: 4.5 h | Mean hour at which fungal growth became visible on the wells supplemented with a certain antibiotic [3]: 5 h | Mean hour at which fungal growth became visible on the wells supplemented with a certain antibiotic [4]: 5 h | Mean hour at which fungal growth became visible on the wells supplemented with a certain antibiotic [5]: 5.5 h | Mean hour at which fungal growth became visible on the wells supplemented with a certain antibiotic [6]: 4.5 h | Mean hour at which fungal growth became visible on the wells supplemented with a certain antibiotic [7]: 5 h | Mean hour at which fungal growth became visible on the wells supplemented with a certain antibiotic [8]: 8.5 h | Mean hour at which fungal growth became visible on the wells supplemented with a certain antibiotic [9]: 7 h | Mean hour at which fungal growth became visible on the wells supplemented with a certain antibiotic [10]: 7 h
